{
  "source": "ChEMBL document CHEMBL4680273",
  "about": "“Teixobactin: A Paving Stone toward a New Class of Antibiotics?” (2020)",
  "data": [
    {"system": "Staphylococcus aureus", "test": "Antibacterial activity against Staphylococcus aureus SH1000 incubated for 24 hrs by CLSI-broth microdilution method", "format": "functional", "conditions": "Staphylococcus aureus, SH1000, read-out: MIC", "units": {"MIC": "µg/mL"}, "values": [
      {"molecule": "CC[C@H](C)[C@H](NC(=O)[C@@H](Cc1ccccc1)NC)C(=O)N[C@@H](CO)C(=O)N[C@H](CCC(N)=O)C(=O)N[C@@H](C(=O)N[C@H](C(=O)N[C@@H](CO)C(=O)N[C@H]1C(=O)N[C@@H](C)C(=O)N[C@@H](CCCNC(=N)N)C(=O)NC(CCCC(F)(F)F)C(=O)O[C@H]1C)[C@@H](C)CC)[C@@H](C)CC", "note": "(stereo not given in full)", "MIC": 32},
      {"molecule": "CCCCC1NC(=O)[C@H](CCCNC(=N)NC)NC(=O)[C@H](C)NC(=O)[C@H](NC(=O)[C@H](CO)NC(=O)[C@@H](NC(=O)[C@H](NC(=O)[C@@H](CCC(N)=O)NC(=O)[C@H](CO)NC(=O)[C@@H](NC(=O)[C@@H](Cc2ccccc2)NC)[C@@H](C)CC)[C@@H](C)CC)[C@@H](C)CC)[C@H](C)OC1=O", "note": "(stereo not given in full)", "MIC": 4},
      {"molecule": "CC[C@H](C)[C@H](NC(=O)[C@@H](Cc1ccccc1)NC)C(=O)N[C@@H](CO)C(=O)N[C@H](CCC(N)=O)C(=O)N[C@@H](C(=O)N[C@H](C(=O)N[C@@H](CO)C(=O)N[C@H]1C(=O)N[C@@H](C)C(=O)N[C@@H](CCCNC(=N)N)C(=O)N[C@@H](C)C(=O)O[C@H]1C)[C@@H](C)CC)[C@@H](C)CC", "MIC": "≥ 32"},
      {"molecule": "C=CCCC1NC(=O)[C@H](CCCNC(=N)N)NC(=O)[C@H](C)NC(=O)[C@H](NC(=O)[C@H](CO)NC(=O)[C@@H](NC(=O)[C@H](NC(=O)[C@@H](CCC(N)=O)NC(=O)[C@H](CO)NC(=O)[C@@H](NC(=O)[C@@H](Cc2ccccc2)NC)[C@@H](C)CC)[C@@H](C)CC)[C@@H](C)CC)[C@H](C)OC1=O", "note": "(stereo not given in full)", "MIC": 32}
    ]},
    {"system": "Staphylococcus aureus", "test": "Antibacterial activity against methicillin resistant Staphylococcus aureus ATCC 33591 incubated for 24 hrs", "format": "functional", "conditions": "not given", "units": {"MIC": "µg/mL"}, "values": [
      {"molecule": "CC[C@H](C)[C@H](NC(=O)[C@@H](Cc1ccccc1)NC)C(=O)N[C@@H](CO)C(=O)N[C@H](CCC(N)=O)C(=O)N[C@@H](C(=O)N[C@H](C(=O)N[C@@H](CO)C(=O)N[C@H]1C(=O)N[C@@H](C)C(=O)N[C@H](C)C(=O)N[C@@H]([C@@H](C)CC)C(=O)O[C@H]1C)[C@@H](C)CC)[C@@H](C)CC", "MIC": 32},
      {"molecule": "CC[C@H](C)[C@H](NC(=O)[C@@H](Cc1ccccc1)NC)C(=O)N[C@@H](C)C(=O)N[C@H](CCC(N)=O)C(=O)N[C@@H](C(=O)N[C@H](C(=O)N[C@@H](CO)C(=O)N[C@H]1C(=O)N[C@@H](C)C(=O)N[C@@H](CCCNC(=N)N)C(=O)N[C@@H]([C@@H](C)CC)C(=O)O[C@H]1C)[C@@H](C)CC)[C@@H](C)CC", "MIC": 1},
      {"molecule": "CC[C@H](C)[C@H](NC(=O)[C@@H](Cc1ccccc1)NC)C(=O)N[C@@H](CO)C(=O)N[C@H](C)C(=O)N[C@@H](C(=O)N[C@H](C(=O)N[C@@H](C)C(=O)N[C@H]1C(=O)N[C@@H](C)C(=O)N[C@@H](CCCNC(=N)N)C(=O)N[C@@H]([C@@H](C)CC)C(=O)O[C@H]1C)[C@@H](C)CC)[C@@H](C)CC", "MIC": 1},
      {"molecule": "CC[C@H](C)[C@H](NC(=O)[C@@H](Cc1ccccc1)NC)C(=O)N[C@@H](CO)C(=O)N[C@H](CCC(N)=O)C(=O)N[C@@H](C(=O)N[C@H](C(=O)N[C@@H](CO)C(=O)N[C@H]1C(=O)N[C@@H](C)C(=O)N[C@@H](C)C(=O)N[C@@H]([C@@H](C)CC)C(=O)O[C@H]1C)[C@@H](C)CC)[C@@H](C)CC", "MIC": 1}
    ]},
    {"system": "Staphylococcus aureus", "test": "Antibacterial activity against Staphylococcus aureus ATCC 29213 incubated for 16 hrs by UV/Visible absorbance method", "format": "functional", "conditions": "not given", "units": {"MIC": "µg/mL"}, "values": [
      {"molecule": "CC[C@H](C)[C@H](NC(=O)[C@@H](Cc1ccccc1)NC)C(=O)N[C@@H](CO)C(=O)N[C@H](CCC(N)=O)C(=O)N[C@@H](C(=O)N[C@H](C(=O)N[C@@H](CO)C(=O)N[C@H]1C(=O)N[C@@H](C)C(=O)N[C@@H](CCCNC(=N)N)CC(=O)N[C@@H]([C@@H](C)CC)CC(=O)O[C@H]1C)[C@@H](C)CC)[C@@H](C)CC", "MIC": 4},
      {"molecule": "CC[C@H](C)[C@@H]1NC(=O)[C@H](CCCNC(=N)N)NC(=O)[C@H](C)NC(=O)[C@@H](NC(=O)[C@H](CO)NC(=O)[C@@H](NC(=O)[C@H](NC(=O)[C@@H](CCC(N)=O)NC(=O)[C@H](CO)NC(=O)[C@@H](NC(=O)[C@@H](Cc2ccccc2)NC)[C@@H](C)CC)[C@@H](C)CC)[C@@H](C)CC)[C@H](C)NC1=O", "MIC": "> 32"},
      {"molecule": "CC[C@H](C)[C@@H]1NC(=O)[C@H](CCCNC(=N)N)NC(=O)[C@H](C)NC(=O)[C@H](NC(=O)[C@H](CO)NC(=O)[C@@H](NC(=O)[C@H](NC(=O)[C@@H](CCC(N)=O)NC(=O)[C@H](CO)NC(=O)[C@@H](NC(=O)[C@@H](Cc2ccccc2)NC)[C@@H](C)CC)[C@@H](C)CC)[C@@H](C)CC)[C@@H](C)NC1=O", "MIC": "> 32"},
      {"molecule": "CC[C@H](C)[C@H](NC(=O)[C@@H](Cc1ccccc1)NC)C(=O)N[C@@H](CO)C(=O)N[C@H](CCC(N)=O)C(=O)N[C@@H](C(=O)N[C@H](C(=O)N[C@@H](CO)C(=O)N[C@H]1C(=O)N[C@@H](C)CC(=O)N[C@@H](CCCNC(=N)N)CC(=O)N[C@@H]([C@@H](C)CC)CC(=O)O[C@H]1C)[C@@H](C)CC)[C@@H](C)CC", "MIC": 16},
      {"molecule": "CC[C@H](C)[C@H](NC(=O)[C@@H](Cc1ccccc1)NC)C(=O)N[C@@H](CO)C(=O)N[C@H](CCC(N)=O)C(=O)N[C@@H](C(=O)N[C@H](C(=O)N[C@@H](CO)C(=O)N[C@H]1C(=O)N[C@@H](C)C(=O)N[C@@H](CCCNC(=N)N)C(=O)N[C@@H]([C@@H](C)CC)CC(=O)O[C@H]1C)[C@@H](C)CC)[C@@H](C)CC", "MIC": 4},
      {"molecule": "CC[C@H](C)[C@H](NC(=O)[C@@H](Cc1ccccc1)NC)C(=O)N[C@@H](CO)C(=O)N[C@H](CCC(N)=O)C(=O)N[C@@H](C(=O)N[C@H](C(=O)N[C@@H](CO)C(=O)N[C@H]1C(=O)N[C@@H](C)CC(=O)N[C@@H](CCCNC(=N)N)CC(=O)N[C@@H]([C@@H](C)CC)C(=O)O[C@H]1C)[C@@H](C)CC)[C@@H](C)CC", "MIC": "> 32"},
      {"molecule": "CC[C@H](C)[C@@H]1NC(=O)[C@H](CCCNC(=N)N)NC(=O)[C@H](C)NC(=O)[C@@H](NC(=O)[C@H](CO)NC(=O)[C@@H](NC(=O)[C@H](NC(=O)[C@@H](CCC(N)=O)NC(=O)[C@H](CO)NC(=O)[C@@H](NC(=O)[C@@H](Cc2ccccc2)NC)[C@@H](C)CC)[C@@H](C)CC)[C@@H](C)CC)[C@@H](C)NC1=O", "MIC": "> 32"},
      {"molecule": "CC[C@H](C)[C@H](NC(=O)[C@@H](Cc1ccccc1)NC)C(=O)N[C@@H](CO)C(=O)N[C@H](CCC(N)=O)C(=O)N[C@@H](C(=O)N[C@H](C(=O)N[C@@H](CO)C(=O)N[C@H]1C(=O)N[C@@H](C)C(=O)N[C@@H](CCCNC(=N)N)CC(=O)N[C@@H]([C@@H](C)CC)C(=O)O[C@H]1C)[C@@H](C)CC)[C@@H](C)CC", "MIC": 8},
      {"molecule": "CC[C@H](C)[C@H](NC(=O)[C@@H](Cc1ccccc1)NC)C(=O)N[C@@H](CO)C(=O)N[C@H](CCC(N)=O)C(=O)N[C@@H](C(=O)N[C@H](C(=O)N[C@@H](CO)C(=O)N[C@H]1C(=O)N[C@@H](C)C(=O)N[C@@H](C)C(=O)N[C@@H]([C@@H](C)CC)C(=O)O[C@H]1C)[C@@H](C)CC)[C@@H](C)CC", "MIC": 1},
      {"molecule": "CC[C@H](C)[C@H](NC(=O)[C@@H](Cc1ccccc1)NC)C(=O)N[C@@H](CO)C(=O)N[C@H](CCC(N)=O)C(=O)N[C@@H](C(=O)N[C@H](C(=O)N[C@@H](CO)C(=O)N[C@H]1C(=O)N[C@@H](C)CC(=O)N[C@@H](CCCNC(=N)N)C(=O)N[C@@H]([C@@H](C)CC)CC(=O)O[C@H]1C)[C@@H](C)CC)[C@@H](C)CC", "MIC": 32},
      {"molecule": "CC[C@H](C)[C@H](NC(=O)[C@@H](Cc1ccccc1)NC)C(=O)N[C@@H](CO)C(=O)N[C@H](CCC(N)=O)C(=O)N[C@@H](C(=O)N(C)[C@H](C(=O)N[C@@H](CO)C(=O)N[C@H]1C(=O)N[C@@H](C)CC(=O)N[C@@H](CCCNC(=N)N)C(=O)N[C@@H]([C@@H](C)CC)C(=O)O[C@H]1C)[C@@H](C)CC)[C@@H](C)CC", "MIC": 32},
      {"molecule": "CC[C@H](C)[C@@H]1NC(=O)[C@H](CCCNC(=N)N)NC(=O)[C@H](C)NC(=O)[C@H](NC(=O)[C@H](CO)NC(=O)[C@@H](NC(=O)[C@H](NC(=O)[C@@H](CCC(N)=O)NC(=O)[C@H](CO)NC(=O)[C@@H](NC(=O)[C@@H](Cc2ccccc2)NC)[C@@H](C)CC)[C@@H](C)CC)[C@@H](C)CC)[C@H](C)NC1=O", "MIC": 1}
    ]}
  ]
}
